Reference: article PMC10793205, “Differential transmetallation of complexes of the anti-cancer thiosemicarbazone, Dp4e4mT: effects on anti-proliferative efficacy, redox activity, oxy-myoglobin and oxy-hemoglobin oxidation” (Chemical Science, 2023)

What was measured:
SK-N-MC cells = test: MTT cellular proliferation assay, SK-N-MC neuroepithelioma cells; type: cell-based, human; conditions: for IC50: SK-N-MC, 37 °C, MTT, mean ± SD (3 experiments); for Therapeutic index SK-N-MC: IC50 of MRC-5 cells/IC50 of SK-N-MC cells, 72 h/37 °C
Method: The anti-proliferative activity of Dp4e4mT relative to its complexes with Fe(III), Co(III), Ni(II), Cu(II), Zn(II), Ga(III), and Pd(II) was examined over incubation periods of 24-, 48-, and 72 h/37 °C (Table 2). These studies were performed using human SK-N-MC neuroepithelioma and AsPC-1 pancreatic adenocarcinoma cells that we have previously examined to assay other ligands.[15,28,43] […]
(§1) All cell lines were procured from the American Type Culture Collection (ATCC; Manassas, VA). The SK-N-MC neuroepithelioma cell line and the mortal MRC-5 fibroblasts were cultured in minimum essential medium (Sigma-Aldrich), while the AsPC-1 cell line was cultured in Roswell Park Memorial Institute 1640 medium (Thermo Fisher Scientific, MA, USA). Both media were supplemented with 10% fetal calf serum, non-essential amino acids (1 mM), sodium pyruvate (1 mM), L-glutamine (2 mM), penicillin (100 U/mL), streptomycin (100 U/mL), and Fungizone (0.5 µg/mL). Cells were maintained at 37 °C in an incubator under a humidified atmosphere with 5% CO 2, following established protocols. 11 Cellular Proliferation Assay
(§2) Cellular proliferation was evaluated through the established 3-(4,5-dimethylthiazol-2-yl)-2,5-diphenyltetrazolium bromide (MTT) proliferation assay, validated by viable cell counts.12 […]
(§3) Ligands and complexes were dissolved in DMSO to make a stock solution of 10 mM, subsequently diluted in culture media. For cell culture experiments, the DMSO's maximum concentration remained below 0.5% (v/v), with no discernible impact on proliferation.12 MTT […]
(§4) Trypan blue staining.12 Analysis of the data was executed employing MARS Data Analysis Software (BMG LabTech; version 3.30). The concentration of agents necessary to inhibit cellular proliferation by 50% (IC 50) was then calculated. […]

MRC-5 fibroblasts = test: MTT cellular proliferation assay, mortal MRC-5 fibroblasts; type: cell-based; conditions: 37 °C, mean ± SD (3 experiments)
Method: To examine the selectivity of the Dp4e4mT complexes against neoplastic versus normal mortal cells, their anti-proliferative efficacy was compared to mortal MRC-5 fibroblasts after a 72 h/37 °C incubation (Table 3). […] To further examine selectivity, an in vitro therapeutic index was calculated as per our previous investigations.[28,57,59,66,67] This parameter is derived from the ratio of the IC50 of MRC-5 cells/IC50 of SK-N-MC or AsPC-1 cells; with high ratios indicating greater selective anti-proliferative activity against neoplastic cells (Table 3). The mean therapeutic index is the average of the therapeutic indices calculated for both tumor cell-types. […] The mean therapeutic index of Dp4e4mT exceeded that obtained for clinically trialed DpC (157), as well as that of Dp44mT (112) and DFO (6). […]
as §1, §2, §3, §4

[1] = Cyclic voltammetry (redox potentials); type: physicochemical; conditions: 1 mM in MeCN/H2O 7 : 3 (v/v) + 0.1 M Et4NClO4, sweep rate 100 mV s^−1
Excerpt: The redox potentials of Fe(III)- and Cu(II)-thiosemicarbazone complexes have been extensively studied and are important for understanding intracellular redox activity and ROS generation.[23,27,28,42] Considering this, the electrochemical properties of [Fe(Dp44mT)2]^+, [Fe(DpC)2]^+, [Fe(Dp4e4mT)2]^+, [Co(Dp4e4mT)2]^+, [Ni(Dp4e4mT)2], [Cu(Dp4e4mT)Cl], [Ga(Dp4e4mT)2]^+, and [Pd(Dp4e4mT)Cl] were investigated with cyclic voltammetry in MeCN : H2O (70 : 30 v/v; Fig. 4A and B). This solvent system was implemented to provide sufficient solubility and because it has been used by our laboratories previously to measure potentials of thiosemicarbazone complexes enabling effective comparison.[28,45,57–59]
Fig. 4 Cyclic voltammograms of: (A) [Fe(Dp44mT)2]^+, [Fe(DpC)2]^+, and [Fe(Dp4e4mT)2]^+. (B) [Co(Dp4e4mT)2]^+, [Ni(Dp4e4mT)2], [Cu(Dp4e4mT)Cl], [Ga(Dp4e4mT)2]^+, and [Pd(Dp4e4mT)Cl] (1 mM in MeCN/H2O 7 : 3 (v/v) + 0.1 M Et4NClO4) at a sweep rate of 100 mV s^−1. The voltammograms were recorded using a glassy carbon working electrode versus a […] (NHE). […]
Cyclic voltammograms were acquired for the Fe(III), Co(III), Ni(II), Cu(II), Ga(III), and Pd(II) complexes of Dp4e4mT utilizing a BAS100B/W potentiostat, equipped with an aqueous Ag/AgCl reference electrode, a glassy carbon working electrode, and a Pt wire auxiliary […]
electrode. […]

[2] = Homo sapiens, MRC5, MRC-5, 72 h

Compound | IC50 (SK-N-MC cells; Homo sapiens, 24 h) | IC50 (SK-N-MC cells; Homo sapiens, 48 h) | IC50 (SK-N-MC cells; Homo sapiens, 72 h) | Therapeutic index SK-N-MC (SK-N-MC cells) | IC50 (MRC-5 fibroblasts; [2]) | IC50 (SK-N-MC cells; 24 h) | IC50 (SK-N-MC cells; 48 h) | IC50 (SK-N-MC cells; 72 h) | IC50 (MRC-5 fibroblasts; MRC-5, 72 h) | Redox potential (mV vs. NHE) [1] | Redox potential (mV vs. NHE) ([1]; listed as [Cu(Dp4e4mT)(Cl)]^±) | IC50 (SK-N-MC cells; 24 h, listed as Dp4e4mT Ga(III) complex) | Redox potential (mV vs. NHE) ([1]; listed as Dp4e4mT Ga(III) complex) | Redox potential (mV vs. NHE) ([1]; listed as [Ga(Dp4e4mT)2]^+/0) | Redox potential (mV vs. NHE) ([1]; listed as Dp4e4mT Pd(II) complex)
CCN(C)C(=S)NN=C(c1ccccn1)c1ccccn1 [Dp4e4mT, di-2-pyridylketone-4-ethyl-4-methyl-3-thiosemicarbazone] | > 25 µM | 0.043 ± 0.006 µM | 0.006 ± 0.001 µM | 301 | 1.81 ± 0.518 µM |  |  |  |  |  |  |  |  |  | 
CN(C)C(=S)NN=C(c1ccccn1)c1ccccn1 [Dp44mT, di-2-pyridylketone 4,4-dimethyl-3-thiosemicarbazone, reference compound] | > 25 µM | 0.043 ± 0.006 µM | 0.006 ± 0.001 µM | 152 | 1.073 ± 0.007 µM |  |  |  |  |  |  |  |  |  | 
CN(C(=S)NN=C(c1ccccn1)c1ccccn1)C1CCCCC1 [DpC, di-2-pyridylketone 4-cyclohexyl-4-methyl-3-thiosemicarbazone, reference compound] | 22.3 ± 0.083 µM | 0.088 ± 0.007 µM | 0.028 ± 0.009 µM | 149 | 2.987 ± 0.008 µM |  |  |  |  |  |  |  |  |  | 
CCN(C)C([S-])=NN=C(c1ccccn1)c1ccccn1.CCN(C)C([S-])=NN=C(c1ccccn1)c1ccccn1.[Co+3] [[Co(Dp4e4mT)2]^+] |  |  |  | 4 |  | 5.498 ± 0.004 µM | 1.47 ± 0.061 µM | 0.818 ± 0.051 µM | 3.901 ± 0.007 µM | –642 mV vs. NHE |  |  |  |  | 
CCN(C)C([S-])=NN=C(c1ccccn1)c1ccccn1.[Cl-].[Cu+2] [[Cu(Dp4e4mT)Cl]] |  |  |  | 130 |  | 0.492 ± 0.034 µM | 0.031 ± 0.008 µM | 0.003 ± 0.001 µM | 0.391 ± 0.072 µM | −151 mV vs. NHE | –151 mV vs. NHE |  |  |  | 
CCN(C)C([S-])=NN=C(c1ccccn1)c1ccccn1.CCN(C)C([S-])=NN=C(c1ccccn1)c1ccccn1.[Fe+3] [[Fe(Dp4e4mT)2]^+] |  |  |  | 9 |  | 2.68 ± 0.071 µM | 1.53 ± 0.037 µM | 0.214 ± 0.005 µM | 1.98 ± 0.006 µM | +70 mV vs. NHE |  |  |  |  | 
CCN(C)C([S-])=NN=C(c1ccccn1)c1ccccn1.CCN(C)C([S-])=NN=C(c1ccccn1)c1ccccn1.[Ga+3] [[Ga(Dp4e4mT)2]^+] |  |  |  | 192 |  | 16.22 ± 0.007 µM | 0.043 ± 0.006 µM | 0.004 ± 0.001 µM | 0.774 ± 0.014 µM |  |  | 16.2 to 19.4 µM | −533 mV vs. NHE | –533 (irreversible) mV vs. NHE | 
CCN(C)C([S-])=NN=C(c1ccccn1)c1ccccn1.CCN(C)C([S-])=NN=C(c1ccccn1)c1ccccn1.[Ni+2] [[Ni(Dp4e4mT)2]] |  |  |  | 250 |  | > 25 µM | 0.075 ± 0.025 µM | 0.018 ± 0.006 µM | > 5 µM | +647 mV vs. NHE |  |  |  |  | 
CCN(C)C([S-])=NN=C(c1ccccn1)c1ccccn1.[Cl-].[Pd+2] [[Pd(Dp4e4mT)Cl]] |  |  |  | 3 |  | > 25 µM | 0.661 ± 0.062 µM | 0.285 ± 0.121 µM | 1.04 ± 0.011 µM | –626 (irreversible) mV vs. NHE |  |  |  |  | −626 mV vs. NHE
CCN(C)C([S-])=NN=C(c1ccccn1)c1ccccn1.CCN(C)C([S-])=NN=C(c1ccccn1)c1ccccn1.[Zn+2] [[Zn(Dp4e4mT)2]] |  |  |  | 187 |  |  |  |  |  |  |  |  |  |  | 
